# Results as given in patent US4863900A (priority 1987, dated 1989).
# Columns and labels:
# HSV1 [1] = assay: Virus inactivation, surviving virus by plaque assay on VERO cells; details: for inactivation of HSV1, temperature effect: 1 hour
# HSV2 = assay: as above; details: for Percent Survivors HSV-2: 1 hr at 37° C.
# HSV1 [2] = assay: Injection of poly-L-histidine treated HSV1 into mice, observed 14 days; type: in vivo, Balb/C mice; details: HSV1 incubated with 100 μg His-75 in 1 ml, pH 6.0, one hour at 37° C., 50 μl in lower left jaw
# Description: 3. All animals were observed daily for 14 days.
# [3] = tested on: influenza, Newcastle disease, tobacco mosaic, poliomyelitis, and mumps viruses; details: cited from earlier work
# [4] = pH 5, 100 μg/ml, 1 hour at 37° C.
# [5] = pH 6, 100 μg/ml, 1 hour at 37° C.
# [6] = pH 7, 100 μg/ml, 1 hour at 37° C.
# [7] = pH 8, 100 μg/ml, 1 hour at 37° C.
# [8] = 100 μg/ml at 37° C., pH 6.0, samples at 1, 15, 30, 45 and 60 minutes
substance,measurement,setting,value
poly-L-Histidine [His-64],inactivation of HSV1,HSV1 [1]; [4],inactivated
same,inactivation of HSV1,HSV1 [1]; [5],inactivated
same,inactivation of HSV1,HSV1 [1]; [6],Some minor inactivation
same,inactivation of HSV1,HSV1 [1]; [7],none
poly-L-Histidine [His-75],Percent Survivors HSV-2,"HSV2; 1 μg/ml, pH 6.0",62%
same,Percent Survivors HSV-2,"HSV2; 10 μg/ml, pH 6.0",84%
same,length of time required for inactivation of HSV2,HSV2; [8],inactivated by as little as one minute of exposure
same,"inactivation of HSV2, temperature effect","HSV2; 4° C., 22° C. and 37° C., 100 μg/ml, pH 6.0, 1 hour",inactivation was almost complete
same,ID50 (amount of drug required to inactivate 50% of the virus),"HSV2; HSV2, pH 6.0, 1 hour at 37° C., linear regression analysis",41.15 mg/L
same,inactivation of HSV2,HSV2; [4],inactivated
same,inactivation of HSV2,HSV2; [5],inactivated
same,inactivation of HSV2,HSV2; [6],not
same,inactivation of HSV2,HSV2; [7],not and Some small amount of inactivation
same,health of mice injected with poly-L-histidine treated HSV1,HSV1 [2]; listed as Poly-L-histidine,failed to cause disease
same,health of mice injected with poly-L-histidine treated HSV1,HSV1 [2]; listed as poly-L-histidine,remained healthy throughout the study
same,Percent Survivors HSV-1,"HSV1 [1]; 1 μg/ml, pH 6.0, 1 hr at 37° C.",83%
same,Percent Survivors HSV-1,"HSV1 [1]; 10 μg/ml, pH 6.0, 1 hr at 37° C.",64%
same,length of time required for inactivation of HSV1,HSV1 [1]; [8],inactivated by as little as one minute of exposure
same,Percent Survivors HSV-1,"HSV1 [1]; 100 μg/ml, pH 6.0, 30 minutes, 37° C., not shifted",0%
same,Percent Survivors HSV-1,"HSV1 [1]; 100 μg/ml, pH 6.0, 60 minutes, 37° C., not shifted",0%
same,"inactivation of HSV1, temperature effect","HSV1 [1]; 4° C., 100 μg/ml, pH 6.0",a small amount of HSV1 survived
same,"inactivation of HSV1, temperature effect","HSV1 [1]; 22° C. and 37° C., 100 μg/ml, pH 6.0",inactivation was almost complete
same,ID50 (amount of drug required to inactivate 50% of the virus),"HSV1 [1]; HSV1, pH 6.0, 1 hour at 37° C., linear regression analysis",44.38 mg/L
same,inactivation of HSV1,HSV1 [1]; [4],efficiently inactivated
same,inactivation of HSV1,HSV1 [1]; [5],efficiently inactivated
same,inactivation of HSV1,HSV1 [1]; [6],not
same,inactivation of HSV,HSV1 [1]; pH 7.2,does not inactivate
same,inactivation of HSV1,HSV1 [1]; [7],not
poly-L-arginine,inhibitory activity against viruses,[3],inhibitory activity
poly-L-lysine,inhibitory activity against viruses,[3],inhibitory activity
